The text below walks through data of ChEMBL document CHEMBL1240454, “1,3-Dioxolane-based ligands incorporating a lactam or imide moiety: structure-affinity/activity relationship at alpha1-adrenoceptor subtypes and at 5-HT1A receptors” (Eur J Med Chem, 2010).

The target of assay [1] is T1, 5-hydroxytryptamine receptor 1A (Homo sapiens) (UniProt P08908).
T1 sequence (whole entry): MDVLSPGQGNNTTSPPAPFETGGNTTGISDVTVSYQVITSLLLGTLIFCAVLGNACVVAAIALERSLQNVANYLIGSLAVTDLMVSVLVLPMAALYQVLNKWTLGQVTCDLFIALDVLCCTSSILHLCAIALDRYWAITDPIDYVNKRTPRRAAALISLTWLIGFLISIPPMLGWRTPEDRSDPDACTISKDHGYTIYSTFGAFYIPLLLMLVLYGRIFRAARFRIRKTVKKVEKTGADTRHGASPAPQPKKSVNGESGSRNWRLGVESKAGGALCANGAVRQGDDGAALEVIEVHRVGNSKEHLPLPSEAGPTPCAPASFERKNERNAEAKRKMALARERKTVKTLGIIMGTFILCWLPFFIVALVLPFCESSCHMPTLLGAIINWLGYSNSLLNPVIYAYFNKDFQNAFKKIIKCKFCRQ
Briefly: Agonist activity at human cloned 5HT1A receptor expressed in human HeLa cells assessed as stimulation of [35S]GTPgammaS binding after 20 mins by liquid scintillation counting. The class given is functional, cell-based.

In assay [2] the target is T1, 5-hydroxytryptamine receptor 1A (Homo sapiens). Briefly: Agonist activity at human cloned 5HT1A receptor expressed in human HeLa cells assessed as stimulation of [35S]GTPgammaS binding after 20 mins by liquid scintillation counting relative to maximal 5HT response. The class given is functional, cell-based. Background: GTPγS is a poorly hydrolysed GTP analogue; its binding reports G protein activation.

Assay [3] deals with T2, Alpha-1B adrenergic receptor (Rattus norvegicus) (UniProt P15823).
T2 sequence (whole entry): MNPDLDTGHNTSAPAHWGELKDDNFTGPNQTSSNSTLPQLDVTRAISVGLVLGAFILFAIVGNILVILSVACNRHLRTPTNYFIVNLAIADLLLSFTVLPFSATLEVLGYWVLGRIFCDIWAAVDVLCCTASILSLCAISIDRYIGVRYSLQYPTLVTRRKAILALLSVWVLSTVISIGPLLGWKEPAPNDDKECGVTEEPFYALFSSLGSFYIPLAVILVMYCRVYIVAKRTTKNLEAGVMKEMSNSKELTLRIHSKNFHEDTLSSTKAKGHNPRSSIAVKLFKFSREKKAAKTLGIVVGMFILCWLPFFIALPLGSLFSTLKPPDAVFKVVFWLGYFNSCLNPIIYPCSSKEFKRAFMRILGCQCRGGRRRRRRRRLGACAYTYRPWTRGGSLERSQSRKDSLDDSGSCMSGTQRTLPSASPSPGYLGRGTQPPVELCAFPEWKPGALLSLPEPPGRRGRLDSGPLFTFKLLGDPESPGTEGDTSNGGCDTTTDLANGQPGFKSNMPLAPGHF
Briefly: Antagonist activity at adrenergic Alpha-1B receptor in Wistar rat spleen assessed as inhibition of […]-induced tissue contraction treated 30 mins before […] challenge. The assay is classed as functional, tissue-based.

By Emax is commonly meant the greatest response seen or fitted, relative to the assay's reference. In the case of `CCCN(CCC)C1CCc2cccc(O)c2C1` (stereo not given), the pD2 in assay [1] stood at 9.27. Also, in assay [2], the maximal response (Emax) worked out at 26%.
A word on the pKb: it is the Kb on a negative log10 scale, so that one unit is a factor of ten. Take `COc1ccccc1N1CCN(CCN2C(=O)CC3(CCCC3)CC2=O)CC1`: the negative-log Kb (pKb) in assay [3] amounted to 7.48. The pD2 in assay [1] was 7.83. Also, the Emax in assay [2] is 100%.
